Experiments:
Type in all cases: physicochemical
[1] = Bulk stability of solid under temperature/humidity stress (HPLC, appearance, XRPD); details: for purity decrease: listed as L-tartaric acid cocrystal Pattern A; for Bulk (XRPD) / Bulk (HPLC) purity, 316 nm: Solid state
Protocol: Bulk stability of (S)-4-((2-methoxyethyl)(4-(5,6,7,8-tetrahydro-1,8-naphthyridin-2-yl)butyl)amino)-2-(quinazolin-4-ylamino)butanoic acid L-tartaric acid cocrystal Pattern A was evaluated at 25° C./92.5% RH in an open container, at 40° C./75% RH in an open container, and at 60° C. in a closed container over 1 week and 4 weeks.
However, it became deliquescent after being stressed at 25° C./92.5% RH in an open container and at 40° C./75% RH in an open container after 1 week.

Compression study = details: 5 minutes; for XRPD after compression: hydraulic press
Protocol: About 20 mg of (S)-4-((2-methoxyethyl)(4-(5,6,7,8-tetrahydro-1,8-naphthyridin-2-yl)butyl)amino)-2-(quinazolin-4-ylamino)butanoic acid L-tartaric acid cocrystal Pattern A was compressed for 5 minutes under 2 MPa, 5 MPa and 10 MPa with a hydraulic press. Potential form change and degree of crystallinity were evaluated by XRPD.

[2] = Wet granulation simulation
Protocol: Water or ethanol was added dropwise to about 20 mg of (S)-4-((2-methoxyethyl)(4-(5,6,7,8-tetrahydro-1,8-naphthyridin-2-yl)butyl)amino)-2-(quinazolin-4-ylamino)butanoic acid L-tartaric acid cocrystal Pattern A until the sample was wetted sufficiently. The wet sample was ground gently using a mortar and pestle. Post granulation sample was dried under ambient conditions for 30 min. The potential form change and degree of crystallinity were evaluated by XRPD.

[3] = Hygroscopicity by dynamic vapor sorption (DVS)
Protocol: Dynamic vapor sorption of Pattern A was studied using a Surface Measurement Systems (SMS) Intrinsic instrument. Total gas flow was 200 sccm. The oven temperature was 25° C. Water was used as the solvent, in a cycle of 40-95-0-95-40% RH. The stage step was 10% RH and equilibrium was within 0.002 dm/dt (%/min) (minimum dm/dt stability duration: 60 min; maximum dm/dt stage time: 360 min). The sample mass was about 5-50 mg.
The water sorption and desorption behavior of (S)-4-((2-methoxyethyl)(4-(5,6,7,8-tetrahydro-1,8-naphthyridin-2-yl)butyl)amino)-2-(quinazolin-4-ylamino)butanoic acid L-tartaric acid cocrystal Pattern A was investigated by DVS at 25° C. with a cycle of 40-95-0-95-40% RH. XRPD was measured after the DVS test to determine form change. […] It dehydrated in 10% RH and below.

[4] = VT-XRPD heating experiment; details: heated to 110° C. under dry nitrogen flow for about 30 min, then cooled to ambient (20-26° C., 20%-35% RH)
Protocol: The dried(S)-4-((2-methoxyethyl)(4-(5,6,7,8-tetrahydro-1,8-naphthyridin-2-yl)butyl)amino)-2-(quinazolin-4-ylamino)butanoic acid L-tartaric acid cocrystal Pattern A was also investigated by VT-XRPD experiments. The(S)-4-((2-methoxyethyl)(4-(5,6,7,8-tetrahydro-1,8-naphthyridin-2-yl)butyl)amino)-2-(quinazolin-4-ylamino)butanoic acid L-tartaric acid cocrystal Pattern A was heated to 110° C. under dry nitrogen flow for about 30 min and then cooled to ambient condition (20-26° C., 20%-35% RH). The obtained solid parts were investigated by XRPD.

Dry grinding = details: ground manually with mortar and pestle for 3 min
Protocol: About 20 mg of (S)-4-((2-methoxyethyl)(4-(5,6,7,8-tetrahydro-1,8-naphthyridin-2-yl)butyl)amino)-2-(quinazolin-4-ylamino)butanoic acid L-tartaric acid cocrystal Pattern A was ground manually with a mortar and a pestle for 3 min. Potential form change and degree of crystallinity were evaluated by XRPD.

[5] = 40° C./75% RH, open container, 4 weeks
[6] = 60° C., closed container, 4 weeks, listed as L-Tartaric acid cocrystal Pattern A, hydrate
[7] = 10% relative humidity at 25° C.
[8] = 20% relative humidity at 25° C.
[9] = 30% relative humidity at 25° C.
[10] = 40% relative humidity at 25° C.
[11] = 50% relative humidity at 25° C.
[12] = 60% relative humidity at 25° C.
[13] = 70% relative humidity at 25° C.
[14] = 80% relative humidity at 25° C.
[15] = 90% relative humidity at 25° C.
[16] = 95% relative humidity at 25° C.

COCCN(CCCCc1ccc2c(n1)NCCC2)CC[C@H](Nc1ncnc2ccccc12)C(=O)O [Pattern A, (S)-4-((2-methoxyethyl)(4-(5,6,7,8-tetrahydro-1,8-naphthyridin-2-yl)butyl)amino)-2-(quinazolin-4-ylamino)butanoic acid]
purity decrease ([1]; 25° C./92.5% RH in an open container, 4 weeks): 0.9% | physical form after stress ([1]; 25° C./92.5% RH open, 40° C./75% RH open and 60° C. closed container, four weeks): remained the same form | physical stability ([1]; 25° C./92.5% RH open, 40° C./75% RH open and 60° C. closed container, over 4 weeks): physically stable | purity decrease ([1]; 60° C. in a closed container, 4 weeks): 0.9% | Bulk (XRPD) ([1]; 25° C./92.5% RH, open container, 1 week): No form change | Bulk (HPLC) purity, 316 nm ([1]; 25° C./92.5% RH, open container, 1 week, listed as L-Tartaric acid cocrystal Pattern A, hydrate): 99.2% | Bulk (XRPD) ([1]; 25° C./92.5% RH, open container, 4 weeks): No form change | Bulk (HPLC) purity, 316 nm ([1]; 25° C./92.5% RH, open container, 4 weeks, listed as L-Tartaric acid cocrystal Pattern A, hydrate): 98.5% | Bulk (XRPD) ([1]; 40° C./75% RH, open container, 1 week): No form change | Bulk (HPLC) purity, 316 nm ([1]; 40° C./75% RH, open container, 1 week, listed as L-Tartaric acid cocrystal Pattern A, hydrate): 98.9% | Bulk (HPLC) purity, 316 nm [1, 5]: 97.3% | Bulk (XRPD) [1, 5]: No form change | Bulk (XRPD) ([1]; 60° C., closed container, 1 week): No form change | Bulk (HPLC) purity, 316 nm ([1]; 60° C., closed container, 1 week, listed as L-Tartaric acid cocrystal Pattern A, hydrate): 99.1% | Bulk (HPLC) purity, 316 nm [1, 6]: 98.5% | Bulk (XRPD) [1, 6]: No form change | stability under stress conditions ([1]; open container, 25° C. and 92.5% relative humidity and 40° C. and 75% RH, up to four weeks): stable | bulk stability relative to the phosphate salt ([1]; various temperatures and relative humidities (BS1, BS2, BS3)): higher stability | degree of crystallinity after compression (XRPD) (Compression study; 2 MPa, 5 MPa and 10 MPa): slight decrease in crystallinity | form change after compression (XRPD) (Compression study; 2 MPa, 5 MPa and 10 MPa): no form change | XRPD after compression (Compression study; 2 MPa): Pattern A | XRPD after compression (Compression study; 5 MPa): Pattern A | XRPD after compression (Compression study; 10 MPa): Pattern A | XRPD after wet granulation ([2]; Granulation solvent Ethanol): Pattern A | Comments (crystallinity after wet granulation) ([2]; Granulation solvent Water): Slight decrease in crystallinity | XRPD after wet granulation ([2]; Granulation solvent Water): Pattern A | 1st desorp. Weight % change ([3]; 0% relative humidity at 25° C.): 0.0% | 2nd sorp. Weight % change ([3]; 0% relative humidity at 25° C.): 0.0% | 1st desorp. Weight % change [3, 7]: 5.2% | 2nd sorp. Weight % change [3, 7]: 4.7% | 1st desorp. Weight % change [3, 8]: 7.4% | 2nd sorp. Weight % change [3, 8]: 7.1% | 1st desorp. Weight % change [3, 9]: 8.3% | 2nd sorp. Weight % change [3, 9]: 8.0% | 1st desorp. Weight % change [3, 10]: 8.9% | 1st sorp. Weight % change [3, 10]: 8.5% | 2nd desorp. Weight % change [3, 10]: 8.9% | 2nd sorp. Weight % change [3, 10]: 8.7% | 1st desorp. Weight % change [3, 11]: 9.4% | 1st sorp. Weight % change [3, 11]: 9.0% | 2nd desorp. Weight % change [3, 11]: 9.4% | 2nd sorp. Weight % change [3, 11]: 9.2% | 1st desorp. Weight % change [3, 12]: 9.8% | 1st sorp. Weight % change [3, 12]: 9.6% | 2nd desorp. Weight % change [3, 12]: 9.9% | 2nd sorp. Weight % change [3, 12]: 9.7% | 1st desorp. Weight % change [3, 13]: 10.4% | 1st sorp. Weight % change [3, 13]: 10.1% | 2nd desorp. Weight % change [3, 13]: 10.4% | 2nd sorp. Weight % change [3, 13]: 10.2% | 1st desorp. Weight % change [3, 14]: 11.1% | 1st sorp. Weight % change [3, 14]: 10.7% | 2nd desorp. Weight % change [3, 14]: 11.1% | 2nd sorp. Weight % change [3, 14]: 10.9% | 1st desorp. Weight % change [3, 15]: 12.6% | 1st sorp. Weight % change [3, 15]: 12.2% | 2nd desorp. Weight % change [3, 15]: 12.6% | 2nd sorp. Weight % change [3, 15]: 12.1% | 1st desorp. Weight % change [3, 16]: 18.7% | 1st sorp. Weight % change [3, 16]: 18.7% | 2nd desorp. Weight % change [3, 16]: 16.1% | 2nd sorp. Weight % change [3, 16]: 16.1% | XRPD following the DVS experiments ([3]; after cycle 40-95-0-95-40% RH, 25° C.): no form change | hygroscopicity ([3]; at 70% RH and below, 25° C.): slightly hygroscopic | water uptake ([3]; from 40% RH to 70% RH, 25° C.): about 1.6% | water uptake ([3]; from 80% RH to 95% RH, 25° C.): about 8.0% | behaviour at low humidity ([3]; in 10% RH and below, 25° C.): dehydrated | hygroscopicity ([3]; in 80% RH and above, 25° C.): moderately hygroscopic | water loss on dehydration ([3]; relative humidity below 10% RH, water absorbed back at 10% RH and above): about 5% | XRPD after heating (VT-XRPD) [4]: no form change | degree of crystallinity after dry grinding (XRPD) (Dry grinding): no obvious change in crystallinity | form change after dry grinding (XRPD) (Dry grinding): No form change

— US20250197393A1, “INTEGRIN INHIBITOR AND USES THEREOF” (Pliant Therapeutics, Inc., priority 2023, published 2025)
